One assay deals with BRD4-BD12 (1-477) (Homo sapiens (Human), UniProt O60885). Nature of the assay: Alphascreen binding assay BRD4-BD12. The following applies: BRD4(1 2) H4; read-out: Biochemical activity (IC50 μM) BRD4(1 2) H4. The method in brief: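 First, compound was preincubated 1 h at room temperature with the His-tagged BRD4 protein (BD1 44-164 or tandem BD12 1-477) and acetylated H4 peptide. Next, donor and acceptor beads were added at 7.5 μg/ml final. After 30 min, AlphaScreen emission was recorded.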

The subject of a further assay is MV-4-11 cells. As to the kind of experiment: Oncology cell growth assay MV-4-11 (CellTiter Glo). The assay is classed as cell-based. The settings on record: Homo sapiens, MV4-11, 72 h; MV-4-11, 3d growth; read-out: Cell activity (IC50 μM) MV-4-11 3d-Growth. The method in brief:
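MV-4-11 AML cells (MLL-AF4), 3000 per well, exposed to 8-point 1:3 compound titration from 10 μM top concentration (0.2% DMSO) for 72 h. Viability by CellTiter Glo luminescence, normalized to DMSO controls; pIC50 from four-parameter curve fit.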

The next assay deals with bromodomain. Nature of the assay: at least one of the bromodomain cell assays of Example 57. The assay is classed as cell-based. The following applies: at least one of the bromodomain cell assays described in Example 57; read-out: IC50 in at least one of the bromodomain cell assays.

On to `COC(=O)c1ccc(-c2cn(C(c3ccccn3)c3ccccn3)c3cc(-c4c(C)noc4C)cnc23)cc1` [P-0574, methyl 4-[1-[bis(2-pyridyl)methyl]-6-(3,5-dimethylisoxazol-4-yl)pyrrolo[3,2-b]pyridin-3-yl]benzoate], for which the IC50 at BRD4-BD12 (1-477) was below 1 µM; in the assay on MV-4-11 cells, below 1 µM; with bromodomain it was below 10000 nM.

Turning to `Cc1noc(C)c1-c1cnc2c(I)cn(C(c3ccccn3)c3ccccn3)c2c1` [P-0575, 4-[1-[bis(2-pyridyl)methyl]-3-iodo-pyrrolo[3,2-b]pyridin-6-yl]-3,5-dimethyl-isoxazole], the IC50 at BRD4-BD12 (1-477) is below 1 µM; with MV-4-11 cells it was below 1 µM; with bromodomain, below 10000 nM.

On to `Cc1noc(C)c1-c1cnc2c(-c3ccc(C(=O)O)cc3)cn(C(c3ccccn3)c3ccccn3)c2c1` [P-0576, 4-[1-[bis(2-pyridyl)methyl]-6-(3,5-dimethylisoxazol-4-yl)pyrrolo[3,2-b]pyridin-3-yl]benzoic acid], for which the IC50 on BRD4-BD12 (1-477) is below 1 µM; with MV-4-11 cells it was below 1 µM; in the assay on bromodomain, below 10000 nM.

As to `Cc1noc(C)c1-c1cnc2c(I)cn(CC3CCCCCCC3)c2c1` [P-0577, 4-[1-(cyclooctylmethyl)-3-iodo-pyrrolo[3,2-b]pyridin-6-yl]-3,5-dimethyl-isoxazole], the values for the IC50 at BRD4-BD12 (1-477), in the assay on MV-4-11 cells and with bromodomain were below 1 µM, below 1 µM and below 10000 nM, respectively.

In the case of `COC(=O)c1ccc(-c2cn(CC3CCCCCCC3)c3cc(-c4c(C)noc4C)cnc23)cc1` [P-0578, methyl 4-[1-(cyclooctylmethyl)-6-(3,5-dimethylisoxazol-4-yl)pyrrolo[3,2-b]pyridin-3-yl]benzoate], the IC50 was below 1 µM on BRD4-BD12 (1-477), 1 to 10 µM in the assay on MV-4-11 cells and below 10000 nM in the assay with bromodomain.

As to `Cc1noc(C)c1-c1cnc2c(-c3ccc(C(=O)O)cc3)cn(CC3CCCCCCC3)c2c1` [P-0579, 4-[1-(cyclooctylmethyl)-6-(3,5-dimethylisoxazol-4-yl)pyrrolo[3,2-b]pyridin-3-yl]benzoic acid], the IC50 at BRD4-BD12 (1-477) is below 1 µM; in the assay on MV-4-11 cells, below 1 µM; in the assay with bromodomain, below 10000 nM.

For `Cc1noc(C)c1-c1cnc2c(I)cn(CC3CCC4(CC3)CC4)c2c1` [P-0580, 4-[3-iodo-1-(spiro[2.5]octan-6-ylmethyl)pyrrolo[3,2-b]pyridin-6-yl]-3,5-dimethyl-isoxazole], the results for the IC50 at BRD4-BD12 (1-477), in the assay with MV-4-11 cells and in the assay on bromodomain were below 1 µM, below 1 µM and below 10000 nM, respectively.

Consider `COC(=O)c1ccc(-c2cn(CC3CCC4(CC3)CC4)c3cc(-c4c(C)noc4C)cnc23)cc1` [P-0581, methyl 4-[6-(3,5-dimethylisoxazol-4-yl)-1-(spiro[2.5]octan-6-ylmethyl)pyrrolo[3,2-b]pyridin-3-yl]benzoate], for which the IC50 on BRD4-BD12 (1-477) was below 1 µM; in the assay with MV-4-11 cells it was 1 to 10 µM; in the assay with bromodomain, below 10000 nM.

On to `Cc1noc(C)c1-c1cnc2c(-c3ccc(C(=O)O)cc3)cn(CC3CCC4(CC3)CC4)c2c1` [P-0582, 4-[6-(3,5-dimethylisoxazol-4-yl)-1-(spiro[2.5]octan-6-ylmethyl)pyrrolo[3,2-b]pyridin-3-yl]benzoic acid], for which the IC50 on BRD4-BD12 (1-477) was below 1 µM; in the assay on MV-4-11 cells it was below 1 µM; in the assay on bromodomain, below 10000 nM.

Take `Cc1noc(C)c1-c1cnc2c(-c3ccc(C(=O)O)cc3)cn([C@H](C)c3ccccc3)c2c1` [P-0583, 4-[6-(3,5-dimethylisoxazol-4-yl)-1-[(1R)-1-phenylethyl]pyrrolo[3,2-b]pyridin-3-yl]benzoic acid]: the IC50 is below 1 µM at BRD4-BD12 (1-477), below 1 µM in the assay with MV-4-11 cells and below 10000 nM with bromodomain.

For the molecule `CCNC(=O)Nc1ccc(-c2cn(CC3CCC(F)(F)CC3)c3cc(-c4c(C)noc4C)cnc23)cn1` [P-0584, 1-[5-[1-[(4,4-difluorocyclohexyl)methyl]-6-(3,5-dimethylisoxazol-4-yl)pyrrolo[3,2-b]pyridin-3-yl]-2-pyridyl]-3-ethyl-urea], the IC50 at BRD4-BD12 (1-477) was below 1 µM; with MV-4-11 cells, below 1 µM; in the assay on bromodomain it was below 10000 nM.

`COC(=O)c1ccc(-c2cn(CC3CCCCCC3)c3cc(-c4c(C)noc4C)cnc23)cc1` [P-0585, methyl 4-[1-(cycloheptylmethyl)-6-(3,5-dimethylisoxazol-4-yl)pyrrolo[3,2-b]pyridin-3-yl]benzoate]: the IC50 was below 1 µM on BRD4-BD12 (1-477), 1 to 10 µM with MV-4-11 cells and below 10000 nM with bromodomain.

`Cc1noc(C)c1-c1cnc2c(-c3ccc(C(=O)O)cc3)cn(CC3CCCCCC3)c2c1` [P-0586, 4-[1-(cycloheptylmethyl)-6-(3,5-dimethylisoxazol-4-yl)pyrrolo[3,2-b]pyridin-3-yl]benzoic acid]: the IC50 on BRD4-BD12 (1-477) was below 1 µM; in the assay on MV-4-11 cells it was below 1 µM; with bromodomain it was below 10000 nM.

Take `Cc1noc(C)c1-c1cnc2c(-c3ccc(CC(=O)O)cc3)cn(CC3CCCCCC3)c2c1` [P-0587, 2-[4-[1-(cycloheptylmethyl)-6-(3,5-dimethylisoxazol-4-yl)pyrrolo[3,2-b]pyridin-3-yl]phenyl]acetic acid]: the IC50 on BRD4-BD12 (1-477) is below 1 µM; in the assay on MV-4-11 cells it was below 1 µM; with bromodomain, below 10000 nM.

As to `COC(=O)Cc1ccc(-c2cn(CC3CCCC3)c3cc(-c4c(C)noc4C)cnc23)cc1` [P-0588, methyl 2-[4-[1-(cyclopentylmethyl)-6-(3,5-dimethylisoxazol-4-yl)pyrrolo[3,2-b]pyridin-3-yl]phenyl]acetate], the IC50 is below 1 µM at BRD4-BD12 (1-477), below 1 µM in the assay on MV-4-11 cells and below 10000 nM with bromodomain.

For the molecule `COC(=O)Cc1ccc(-c2cn(CC3CCCCC3)c3cc(-c4c(C)noc4C)cnc23)cc1` [P-0589, methyl 2-[4-[1-(cyclohexylmethyl)-6-(3,5-dimethylisoxazol-4-yl)pyrrolo[3,2-b]pyridin-3-yl]phenyl]acetate], the IC50 is below 1 µM at BRD4-BD12 (1-477), below 1 µM with MV-4-11 cells and below 10000 nM in the assay on bromodomain.

On to `Cc1noc(C)c1-c1cnc2c(-c3ccc(CC(=O)O)cc3)cn(CC3CCCCC3)c2c1` [P-0590, 2-[4-[1-(cyclohexylmethyl)-6-(3,5-dimethylisoxazol-4-yl)pyrrolo[3,2-b]pyridin-3-yl]phenyl]acetic acid], for which the values for the concentration for half-maximal inhibition (IC50) at BRD4-BD12 (1-477), with MV-4-11 cells and in the assay on bromodomain were below 1 µM, below 1 µM and below 10000 nM, respectively.

With `Cc1noc(C)c1-c1cnc2c(-c3ccc(CC(=O)O)cc3)cn(CC3CCCC3)c2c1` [P-0591, 2-[4-[1-(cyclopentylmethyl)-6-(3,5-dimethylisoxazol-4-yl)pyrrolo[3,2-b]pyridin-3-yl]phenyl]acetic acid], the IC50 on BRD4-BD12 (1-477) was below 1 µM; in the assay with MV-4-11 cells it was below 1 µM; in the assay on bromodomain, below 10000 nM.

Consider `Cc1noc(C)c1-c1cnc2c(-c3ccc(C#N)cc3)cn(C(c3ccccn3)c3ccccn3)c2c1` [P-0592, 4-[1-[bis(2-pyridyl)methyl]-6-(3,5-dimethylisoxazol-4-yl)pyrrolo[3,2-b]pyridin-3-yl]benzonitrile], for which the results for the IC50 at BRD4-BD12 (1-477), with MV-4-11 cells and in the assay on bromodomain were below 1 µM, below 1 µM and below 10000 nM, respectively.

For the molecule `Cc1noc(C)c1-c1cnc2c(-c3cnn(C)c3)cn(C(c3ccccn3)c3ccccn3)c2c1` [P-0593, 4-[1-[bis(2-pyridyl)methyl]-3-(1-methylpyrazol-4-yl)pyrrolo[3,2-b]pyridin-6-yl]-3,5-dimethyl-isoxazole], the IC50 at BRD4-BD12 (1-477) was below 1 µM; in the assay on MV-4-11 cells it was below 1 µM; with bromodomain, below 10000 nM.

As to `Cc1noc(C)c1-c1cnc2c(-c3ccc(C#N)nc3)cn(CC3CCC(F)(F)CC3)c2c1` [P-0594, 5-[1-[(4,4-difluorocyclohexyl)methyl]-6-(3,5-dimethylisoxazol-4-yl)pyrrolo[3,2-b]pyridin-3-yl]pyridine-2-carbonitrile], the results for the IC50 on BRD4-BD12 (1-477), in the assay on MV-4-11 cells and in the assay with bromodomain were below 1 µM, below 1 µM and below 10000 nM, respectively.

For `Cc1noc(C)c1-c1cnc2c(-c3ccc(C#N)nc3)cn([C@@H](C)c3ccccn3)c2c1` [P-0595, 5-[6-(3,5-dimethylisoxazol-4-yl)-1-[(1S)-1-(2-pyridyl)ethyl]pyrrolo[3,2-b]pyridin-3-yl]pyridine-2-carbonitrile], the figures for the 50% inhibitory concentration (IC50) at BRD4-BD12 (1-477), in the assay on MV-4-11 cells and in the assay on bromodomain were below 1 µM, below 1 µM and below 10000 nM, respectively.

For `Cc1noc(C)c1-c1cnc2c(-c3ccc(B(O)O)cc3)cn(CC3CCC(F)(F)CC3)c2c1` [P-0596, [4-[1-[(4,4-difluorocyclohexyl)methyl]-6-(3,5-dimethylisoxazol-4-yl)pyrrolo[3,2-b]pyridin-3-yl]phenyl]boronic acid], the IC50 at BRD4-BD12 (1-477) is below 1 µM; in the assay on MV-4-11 cells it was below 1 µM; with bromodomain it was below 10000 nM.

For the molecule `Cc1noc(C)c1-c1cnc2c(-c3ccc(C#N)nc3)cn(C(c3ccccn3)c3ccccn3)c2c1` [P-0597, 5-[1-[bis(2-pyridyl)methyl]-6-(3,5-dimethylisoxazol-4-yl)pyrrolo[3,2-b]pyridin-3-yl]pyridine-2-carbonitrile], the IC50 was below 1 µM at BRD4-BD12 (1-477), below 1 µM with MV-4-11 cells and below 10000 nM with bromodomain.

As for `Cc1noc(C)c1-c1cnc2c(-c3ccc([N+](=O)[O-])cc3)cn(CC3CCC(F)(F)CC3)c2c1` [P-0598, 4-[1-[(4,4-difluorocyclohexyl)methyl]-3-(4-nitrophenyl)pyrrolo[3,2-b]pyridin-6-yl]-3,5-dimethyl-isoxazole], the IC50 on BRD4-BD12 (1-477) was below 1 µM; with MV-4-11 cells, below 1 µM; in the assay with bromodomain it was below 10000 nM.

Source of the values: patent publication US10519177B2, “Heterocyclic compounds and uses thereof” (Plexxikon Inc., priority 2013, dated 2019).
